# Reference: patent US20110182850A1, “ORGANIC COMPOUNDS AND THEIR USES” (priority 2009, published 2011)
# Target: T1, HCV NS3-4A serine protease (full-length NS3-4A protein, genotype 1a, strain HCV-1) (Hepatitis C virus genotype 1a, UniProt P26664)
# T1 construct: using the full-length NS3-4A protein (genotype 1a, strain HCV-1)
# Assay: HCV NS3-4A protease assay
# Format: biochemical
# Conditions: Protease IC50
# Protocol: The inhibitory activity of certain compounds of Table A against HCV NS3-4A serine protease is determined in a homogenous assay using the full-length NS3-4A protein (genotype 1a, strain HCV-1) and a commercially available internally-quenched fluorogenic peptide substrate as described by Taliani, M., et al. 1996 Anal. Biochem. 240:60-67, which is incorporated by reference in its entirety.
# T1 sequence (P26664 1658-1711): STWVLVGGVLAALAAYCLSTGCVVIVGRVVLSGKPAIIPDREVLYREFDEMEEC
# T1 sequence (P26664 1027-1657): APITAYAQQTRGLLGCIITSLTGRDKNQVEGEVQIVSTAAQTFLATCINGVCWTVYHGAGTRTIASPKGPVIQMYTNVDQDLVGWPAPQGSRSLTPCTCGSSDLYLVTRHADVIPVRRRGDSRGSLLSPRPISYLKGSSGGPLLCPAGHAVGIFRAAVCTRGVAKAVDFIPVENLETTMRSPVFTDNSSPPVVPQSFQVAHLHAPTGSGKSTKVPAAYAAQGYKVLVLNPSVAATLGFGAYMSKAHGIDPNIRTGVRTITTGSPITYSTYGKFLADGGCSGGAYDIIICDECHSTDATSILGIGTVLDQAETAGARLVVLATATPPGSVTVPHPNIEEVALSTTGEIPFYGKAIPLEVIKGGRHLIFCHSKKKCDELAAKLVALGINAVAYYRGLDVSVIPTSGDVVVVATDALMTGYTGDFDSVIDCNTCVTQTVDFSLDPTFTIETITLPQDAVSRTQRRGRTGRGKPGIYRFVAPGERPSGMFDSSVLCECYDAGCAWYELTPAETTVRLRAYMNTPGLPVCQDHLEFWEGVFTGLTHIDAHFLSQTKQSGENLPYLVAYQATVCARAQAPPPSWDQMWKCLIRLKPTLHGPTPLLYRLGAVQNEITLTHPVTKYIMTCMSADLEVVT
row,Compound,IC50 [nM]
1,"CC(C)N1CCCC[C@H]1C(=O)N[C@H](C(=O)N[C@H](C(=O)N1C[C@]2(C[C@H]1C(=O)NC1(C(=O)NS(=O)(=O)C3CC3)CCC1)C(C)(C)C21CCC1)C(C)(C)C)C(C)(C)C [Compound 133, (5R,8S)-N-{1-[(cyclopropylsulfonyl)carba-moyl]cyclobutyl}-7-[(2S)-2-{[(2S)-2-({[(2S)-1-isopropylpiperidin-2-yl]carbonyl}amino)-3,3-dimethylbutanoyl]amino}-3,3-dimethylbutanoyl]-10,10-dimethyl-7-azadispiro[3.0.4.1]decane-8-carboxamide]",450
2,"C=C[C@H]1C[C@@]1(NC(=O)[C@@H]1C[C@@]2(CN1C(=O)[C@@H](NC(=O)[C@@H](NC(=O)C1CNC(=O)C1)C1CCCCC1)C(C)(C)C)C(C)(C)C21CCC1)C(=O)NS(=O)(=O)C1CC1 (stereo partly drawn) [Compound 109, (5R,8S)-7-{(2S)-2-[(cyclohexyl{[(5-oxopyrrolidin-3-yl)carbonyl]amino}acetyl)amino]-3,3-dimethylbutanoyl}-N-{(1R,2S)-1-[(cyclopropylsulfonyl)carba-moyl]-2-vinylcyclopropyl}-10,10-dimethyl-7-azadispiro[3.0.4.1]decane-8-carboxamide]",0.6
3,"C=C[C@@H]1C[C@]1(NC(=O)[C@@H]1C[C@@]2(CN1C(=O)[C@@H](NC(=O)[C@@H](NC(=O)c1ccncc1)C1CCCCC1)C(C)(C)C)C(C)(C)C21CCC1)C(=O)NS(=O)(=O)C1CC1 [Compound 96, (5R,8S)-7-[(2S)-2-{[(2S)-2-cyclohexyl-2-(isonicotinoylamino)acetyl]amino}-3,3-dimethylbutanoyl]-N-{(1R,2S)-1-[(cyclopropylsulfonyl)carba-moyl]-2-vinylcyclopropyl}-10,10-dimethyl-7-azadispiro[3.0.4.1]decane-8-carboxamide]",1
4,"C=C[C@@H]1C[C@]1(NC(=O)[C@@H]1C[C@@]2(CN1C(=O)[C@@H](NC(=O)[C@@H](NC(=O)c1cncnc1)C1CCCCC1)C(C)(C)C)C(C)(C)C21CCC1)C(=O)NS(=O)(=O)C1CC1 [Compound 116, (5R,8S)-7-[(2S)-2-({(2S)-2-cyclohexyl-2-[(pyrimidin-5-ylcarbonyl)amino]acetyl}amino)-3,3-dimethylbutanoyl]-N-{(1R,2S)-1-[(cyclopropylsulfonyl)carba-moyl]-2-vinylcyclopropyl}-10,10-dimethyl-7-azadispiro[3.0.4.1]decane-8-carboxamide]",0.6
5,"CC(C)N1CCCCC1C(=O)N[C@H](C(=O)N[C@H](C(=O)N1C[C@]2(C[C@H]1C(=O)N[C@]1(C(=O)NS(=O)(=O)C3CC3)CC=CCC1)C(C)(C)C21CCC1)C(C)(C)C)C1CCCCC1 (stereo partly drawn) [Compound 25, (5R,8S)-7-[(2S)-2-{[(2S)-2-cyclohexyl-2-{[(1-isopropylpiperidin-2-yl)carbonyl]amino}acetyl]amino}-3,3-dimethylbutanoyl]-N-{(1S)-1-[(cyclopropylsulfonyl)carba-moyl]cyclohex-3-en-1-yl}-10,10-dimethyl-7-azadispiro[3.0.4.1]decane-8-carboxamide]",550
6,"C=C[C@@H]1C[C@]1(NC(=O)[C@@H]1C[C@@]2(CN1C(=O)[C@@H](NC(=O)[C@@H](NC(=O)[C@@H]1CCCCN1C(C)C)C(C)(C)C)C(C)(C)C)C(C)(C)C21CCC1)C(=O)NS(=O)(=O)Cc1ccccc1 [Compound 22, (5R,8S)-N-{(1R,2S)-1-[(benzylsulfonyl)carbamoyl]-2-vinylcyclopropyl}-7-[(2S)-2-{[(2S)-2-({[(2S)-1-isopropylpiperidin-2-yl]carbonyl}amino)-3,3-dimethylbutanoyl]amino}-3,3-dimethylbutanoyl]-10,10-dimethyl-7-azadispiro[3.0.4.1]decane-8-carboxamide]",14
7,"CC(C)N1CCCC[C@H]1C(=O)N[C@H](C(=O)N[C@H](C(=O)N1C[C@]2(C[C@H]1C(=O)NC1(C(=O)NS(=O)(=O)C3CC3)CC=CC1)C(C)(C)C21CCC1)C(C)(C)C)C(C)(C)C [Compound 23, (5R,8S)-N-{1-[(cyclopropylsulfonyl)carba-moyl]cyclopent-3-en-1-yl}-7-[(2S)-2-{[(2S)-2-({[(2S)-1-isopropylpiperidin-2-yl]carbonyl}amino)-3,3-dimethylbutanoyl]amino}-3,3-dimethylbutanoyl]-10,10-dimethyl-7-azadispiro[3.0.4.1]decane-8-carboxamide]",1250
8,"C=C[C@@H]1C[C@]1(NC(=O)[C@@H]1C[C@@]2(CN1C(=O)[C@@H](NC(=O)[C@@H](NC(=O)[C@@H]1CCCCN1CC)C1CCCCC1)C(C)(C)C)C(C)(C)C21CCC1)C(=O)NS(=O)(=O)C1(C)CC1 [Compound 73, (5R,8S)-7-[(2S)-2-{[(2S)-2-cyclohexyl-2-({[(2S)-1-ethylpiperidin-2-yl]carbonyl}amino)acetyl]amino}-3,3-dimethylbutanoyl]-10,10-dimethyl-N-[(1R,2S)-1-{[(1-methylcyclopropyl)sulfonyl]carbamoyl}-2-vinylcyclopropyl]-7-azadispiro[3.0.4.1]decane-8-carboxamide]",3
9,"C=C[C@@H]1C[C@]1(NC(=O)[C@@H]1C[C@@]2(CN1C(=O)[C@@H](NC(=O)[C@@H](NC(=O)[C@@H]1CCCCN1C(C)C)C(C)(C)C)C(C)(C)C)C(C)(C)C21CCC1)C(=O)NS(=O)(=O)c1cccc2cc[nH]c12 [Compound 4, (5R,8S)-N-{(1R,2S)-1-[(1H-indol-7-ylsulfonyl)carbamoyl]-2-vinylcyclopropyl}-7-[(2S)-2-{[(2S)-2-({[(2S)-1-isopropylpiperidin-2-yl]carbonyl}amino)-3,3-dimethylbutanoyl]amino}-3,3-dimethylbutanoyl]-10,10-dimethyl-7-azadispiro[3.0.4.1]decane-8-carboxamide]",0.8
10,"C=C[C@@H]1C[C@]1(NC(=O)[C@@H]1C[C@@]2(CN1C(=O)[C@@H](NC(=O)[C@@H](NC(=O)[C@@H]1CCCCN1CC)C1CCCCC1)C(C)(C)C)C(C)(C)C21CCC1)C(=O)NS(=O)(=O)C(F)(F)F [Compound 79, (5R,8S)-7-[(2S)-2-{[(2S)-2-cyclohexyl-2-({[(2S)-1-ethylpiperidin-2-yl]carbonyl}amino)acetyl]amino}-3,3-dimethylbutanoyl]-10,10-dimethyl-N-[(1R,2S)-1-{[(trifluoromethyl)sulfonyl]carbamoyl}-2-vinylcyclopropyl]-7-azadispiro[3.0.4.1]decane-8-carboxamide]",2
11,"CC(C)(C)[C@H](NC(=O)C1CCCCN1CCF)C(=O)N[C@H](C(=O)N1C[C@]2(C[C@H]1C(=O)N[C@]1(C(=O)NS(=O)(=O)C3CC3)CC=CCC1)C(C)(C)C21CCC1)C(C)(C)C (stereo partly drawn) [Compound 28, (5R,8S)-N-{(1S)-1-[(cyclopropylsulfonyl)carba-moyl]cyclohex-3-en-1-yl}-7-[(2S)-2-{[(2S)-2-({[1-(2-fluoroethyl)piperidin-2-yl]carbonyl}amino)-3,3-dimethylbutanoyl]amino}-3,3-dimethylbutanoyl]-10,10-dimethyl-7-azadispiro[3.0.4.1]decane-8-carboxamide]",3150

# Same assay, conditions: read-out: Protease IC50
row,Compound,IC50 [nM]
1,"C=C[C@@H]1C[C@]1(NC(=O)[C@@H]1C[C@@]2(CN1C(=O)[C@@H](NC(=O)[C@@H](NS(=O)(=O)c1c(C)noc1C)C(C)(C)C)C(C)(C)C)C(C)(C)C21CCC1)C(=O)NS(=O)(=O)C1CC1 [Compound 51, (5R,8S)-N-{(1R,2S)-1-[(cyclopropylsulfonyl)carba-moyl]-2-vinylcyclopropyl}-7-[(2S)-2-{[(2S)-2-{[(3,5-dimethylisoxazol-4-yl)sulfonyl]amino}-3,3-dimethylbutanoyl]amino}-3,3-dimethylbutanoyl]-10,10-dimethyl-7-azadispiro[3.0.4.1]decane-8-carboxamide]",250
2,"C=C[C@@H]1C[C@]1(NC(=O)[C@@H]1C[C@@]2(CN1C(=O)[C@@H](NC(=O)[C@@H](NS(=O)(=O)N(C)C)C(C)(C)C)C(C)(C)C)C(C)(C)C21CCC1)C(=O)NS(=O)(=O)C1CC1 [Compound 48, (5R,8S)-N-{(1R,2S)-1-[(cyclopropylsulfonyl)carba-moyl]-2-vinylcyclopropyl}-7-[(2S)-2-{[(2S)-2-{[(dimethylamino)sulfonyl]amino}-3,3-dimethylbutanoyl]amino}-3,3-dimethylbutanoyl]-10,10-dimethyl-7-azadispiro[3.0.4.1]decane-8-carboxamide]",95
3,"C=C[C@@H]1C[C@]1(NC(=O)[C@@H]1C[C@@]2(CN1C(=O)[C@@H](NC(=O)NC13CC4CC(CC(C4)C1)C3)C(C)(C)C)C(C)(C)C21CCC1)C(=O)NS(=O)(=O)C1CC1 [Compound 37, (5R,8S)-7-{(2S)-2-[(adamantan-1-ylcarbamoyl)amino]-3,3-dimethylbutanoyl}-N-{(1R,2S)-1-[(cyclopropylsulfonyl)carba-moyl]-2-vinylcyclopropyl}-10,10-dimethyl-7-azadispiro[3.0.4.1]decane-8-carboxamide]",45
4,"C=C[C@@H]1C[C@]1(NC(=O)[C@@H]1C[C@@]2(CN1C(=O)[C@@H](NC(=O)N[C@H](C(=O)N1CCOCC1)C(C)(C)C)C(C)(C)C)C(C)(C)C21CCC1)C(=O)NS(=O)(=O)C1CC1 [Compound 31, (5R,8S)-N-{(1R,2S)-1-[(cyclopropylsulfonyl)carba-moyl]-2-vinylcyclopropyl}-7-[(2S)-2-({[(1S)-2,2-dimethyl-1-(morpholin-4-ylcarbonyl)propyl]carbamoyl}amino)-3,3-dimethylbutanoyl]-10,10-dimethyl-7-azadispiro[3.0.4.1]decane-8-carboxamide]",15
5,"C=C[C@@H]1C[C@]1(NC(=O)[C@@H]1C[C@@]2(CN1C(=O)[C@@H](NC(=O)[C@@H](CC(=O)N(C)C)C(C)(C)C)C(C)(C)C)C(C)(C)C21CCC1)C(=O)NS(=O)(=O)C1CC1 [Compound 65, (2S)-2-tert-butyl-N1-[(1S)-1-{[(5R,8S)-8-({(1R,2S)-1-[(cyclopropylsulfonyl)carba-moyl]-2-vinylcyclopropyl}carbamoyl)-10,10-dimethyl-7-azadispiro[3.0.4.1]dec-7-yl]carbonyl}-2,2-dimethylpropyl]-N4,N4-dimethylsuccinamide]",70
